According to patent US20240400564A1 (Syndax Pharmaceuticals, Inc, priority 2021, published 2024):

Molecular target: hERG (Homo sapiens, UniProt Q12809)
Test: Patch clamp assay (hERG tail currents, whole-cell)

Chain of hERG (Q12809 whole entry): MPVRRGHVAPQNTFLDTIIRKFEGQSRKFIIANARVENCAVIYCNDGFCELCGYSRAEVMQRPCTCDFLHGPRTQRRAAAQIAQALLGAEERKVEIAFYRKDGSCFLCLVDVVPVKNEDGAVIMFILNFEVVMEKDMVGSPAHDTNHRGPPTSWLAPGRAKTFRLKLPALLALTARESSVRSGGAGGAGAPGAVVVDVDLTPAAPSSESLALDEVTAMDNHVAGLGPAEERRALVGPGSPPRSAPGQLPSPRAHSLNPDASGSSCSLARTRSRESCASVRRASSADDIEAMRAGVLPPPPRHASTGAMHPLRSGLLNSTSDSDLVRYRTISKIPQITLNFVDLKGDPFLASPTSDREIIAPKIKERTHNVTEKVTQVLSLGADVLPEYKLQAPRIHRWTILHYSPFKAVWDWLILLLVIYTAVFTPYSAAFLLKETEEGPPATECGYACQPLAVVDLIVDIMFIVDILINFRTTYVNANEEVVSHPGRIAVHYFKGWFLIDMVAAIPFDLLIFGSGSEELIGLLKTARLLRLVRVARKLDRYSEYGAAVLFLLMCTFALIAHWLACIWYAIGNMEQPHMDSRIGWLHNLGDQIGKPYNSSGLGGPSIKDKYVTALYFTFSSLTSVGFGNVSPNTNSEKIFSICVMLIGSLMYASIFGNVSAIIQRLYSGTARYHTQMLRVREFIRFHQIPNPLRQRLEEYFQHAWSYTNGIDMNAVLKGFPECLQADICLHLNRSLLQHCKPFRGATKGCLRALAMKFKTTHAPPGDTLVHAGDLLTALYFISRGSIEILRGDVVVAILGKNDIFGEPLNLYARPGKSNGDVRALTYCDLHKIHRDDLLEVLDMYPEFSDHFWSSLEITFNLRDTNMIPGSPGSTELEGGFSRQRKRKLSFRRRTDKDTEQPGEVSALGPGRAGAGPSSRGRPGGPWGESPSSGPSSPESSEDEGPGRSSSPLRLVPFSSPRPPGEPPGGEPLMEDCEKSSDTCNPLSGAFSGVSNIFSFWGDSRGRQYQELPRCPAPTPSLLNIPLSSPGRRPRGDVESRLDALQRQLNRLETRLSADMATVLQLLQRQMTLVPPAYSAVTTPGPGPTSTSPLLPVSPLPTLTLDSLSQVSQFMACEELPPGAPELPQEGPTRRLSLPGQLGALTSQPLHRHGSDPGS

## C[C@@H]1COC[C@@H](C)N1C(=O)c1cc(F)ccc1Oc1cncnc1N1CC2(CCN(C[C@@H]3CC[C@@H](NS(=O)(=O)c4ccccc4)CO3)CC2)C1 [Example 120, N-((3R,6S)-6-((2-(5-(2-((3R,5R)-3,5-Dimethylmorpholine-4-carbonyl)-4-fluorophenoxy)pyrimidin-4-yl)-2,7-diazaspiro[3.5]nonan-7-yl)methyl)tetrahydro-2H-pyran-3-yl)benzenesulfonamide]
10 μM compound
  hERG % Remaining: +++ (≥66%)
30 μM compound
  hERG % Remaining: ++ (233% and ≤66%)

## CC(C)N(CC(F)F)C(=O)c1cc(F)ccc1Oc1cncnc1N1CC2(CCN(C[C@@H]3CC[C@@H](NS(=O)(=O)N4CCC4)CO3)CC2)C1 [Example 99, 2-((4-(7-(((2S,5R)-5-(Azetidine-1-sulfonamido)tetrahydro-2H-pyran-2-yl)methyl)-2,7-diazaspiro[3.5]nonan-2-yl)pyrimidin-5-yl)oxy)-N-(2,2-difluoroethyl)-5-fluoro-N-isopropylbenzamide]
10 μM compound
  hERG % Remaining: +++ (≥66%)
30 μM compound
  hERG % Remaining: ++ (233% and ≤66%)

## CC(C)N(C(=O)c1cc(F)ccc1Oc1cncnc1N1CC2(CCN(C[C@@H]3CC[C@@H](NS(=O)(=O)N4CCC4)CO3)CC2)C1)C1COC1 [Example 248, 2-((4-(7-(((2S,5R)-5-(Azetidine-1-sulfonamido)tetrahydro-2H-pyran-2-yl)methyl)-2,7-diazaspiro[3.5]nonan-2-yl)pyrimidin-5-yl)oxy)-5-fluoro-N-isopropyl-N-(oxetan-3-yl)benzamide]
30 μM compound
  hERG % Remaining: +++ (≥66%)

## CNS(=O)(=O)N[C@@H]1CC[C@@H](CN2CCC3(CC2)CN(c2ncncc2Oc2ccc(F)cc2C(=O)N(C(C)C)C2CC(F)(F)C2)C3)OC1 [Example 154, N-(3,3-Difluorocyclobutyl)-5-fluoro-N-isopropyl-2-((4-(7-(((2S,5R)-5-((N-methylsulfamoyl)amino)tetrahydro-2H-pyran-2-yl)methyl)-2,7-diazaspiro[3.5]nonan-2-yl)pyrimidin-5-yl)oxy)benzamide]
10 μM compound
  hERG % Remaining: +++ (≥66%)
30 μM compound
  hERG % Remaining: ++ (233% and ≤66%)

## CCNS(=O)(=O)N[C@@H]1CC[C@@H](CN2CCC3(CC2)CN(c2ncncc2Oc2ccc(F)cc2C(=O)N(C(C)C)C2CC(F)(F)C2)C3)OC1 [Example 155, N-(3,3-Difluorocyclobutyl)-2-((4-(7-(((2S,5R)-5-((N-ethylsulfamoyl)amino)tetrahydro-2H-pyran-2-yl)methyl)-2,7-diazaspiro[3.5]nonan-2-yl)pyrimidin-5-yl)oxy)-5-fluoro-N-isopropylbenzamide]
10 μM compound
  hERG % Remaining: +++ (≥66%)
30 μM compound
  hERG % Remaining: ++ (233% and ≤66%)

## CCN(CC)S(=O)(=O)N[C@@H]1CC[C@@H](CN2CCC3(CC2)CN(c2ncncc2Oc2ccc(F)cc2C(=O)N(C(C)C)[C@H]2CCOC2)C3)OC1 [Example 175, 2-((4-(7-(((2S,5R)-5-((N,N-Diethylsulfamoyl)amino)tetrahydro-2H-pyran-2-yl)methyl)-2,7-diazaspiro[3.5]nonan-2-yl)pyrimidin-5-yl)oxy)-5-fluoro-N-isopropyl-N-((S)-tetrahydrofuran-3-yl)benzamide]
10 μM compound
  hERG % Remaining: ++ (233% and ≤66%)
30 μM compound
  hERG % Remaining: + (<33%)

## CC(C)N(CCC#N)C(=O)c1cc(F)ccc1Oc1cncnc1N1CC2(CCN(C[C@@H]3CC[C@@H](NS(=O)(=O)c4ccccc4)CO3)CC2)C1 [Example 136, N-(2-Cyanoethyl)-5-fluoro-N-isopropyl-2-((4-(7-(((2S,5R)-5-(phenylsulfonamido)tetrahydro-2H-pyran-2-yl)methyl)-2,7-diazaspiro[3.5]nonan-2-yl)pyrimidin-5-yl)oxy)benzamide]
10 μM compound
  hERG % Remaining: +++ (≥66%)
30 μM compound
  hERG % Remaining: + (<33%)

## CC(C)N(C(=O)c1cc(F)ccc1Oc1cncnc1N1CC2(CCN(C[C@@H]3CC[C@@H](NS(=O)(=O)C4CC4)CO3)CC2)C1)[C@@H]1CCOC1 [Example 164, 2-((4-(7-(((2S,5R)-5-(Cyclopropanesulfonamido)tetrahydro-2H-pyran-2-yl)methyl)-2,7-diazaspiro[3.5]nonan-2-yl)pyrimidin-5-yl)oxy)-5-fluoro-N-isopropyl-N-((R)-tetrahydrofuran-3-yl)benzamide]
10 μM compound
  hERG % Remaining: +++ (≥66%)
30 μM compound
  hERG % Remaining: +++ (≥66%)

## CCN(C(=O)c1cc(F)ccc1Oc1cncnc1N1CC2(CCN(C[C@@H]3CC[C@@H](NS(=O)(=O)N4CCOCC4)CO3)CC2)C1)C(C)C [Example 64, N-Ethyl-5-fluoro-N-isopropyl-2-((4-(7-(((2S,5R)-5-(morpholine-4-sulfonamido)tetrahydro-2H-pyran-2-yl)methyl)-2,7-diazaspiro[3.5]nonan-2-yl)pyrimidin-5-yl)oxy)benzamide]
10 μM compound
  hERG % Remaining: +++ (≥66%)
30 μM compound
  hERG % Remaining: ++ (233% and ≤66%)

## CCNS(=O)(=O)N[C@H]1CC[C@H](CN2CCC3(CC2)CN(c2ncnnc2Oc2ccc(F)cc2C(=O)N(CC(F)(F)F)C(C)C)C3)OC1 (stereo in doubt) [Example 193, 2-((5-(7-(((2R,5S)-5-((N-Ethylsulfamoyl)amino)tetrahydro-2H-pyran-2-yl)methyl)-2,7-diazaspiro[3.5]nonan-2-yl)-1,2,4-triazin-6-yl)oxy)-5-fluoro-N-isopropyl-N-(2,2,2-trifluoroethyl)benzamide]
30 μM compound
  hERG % Remaining: +++ (≥66%)

## CC(C)N(C(=O)c1cc(F)ccc1Oc1cncnc1N1CC2(CCN(C[C@@H]3CC[C@@H](NS(=O)(=O)N(C)C)CO3)CC2)C1)C1COC1 [Example 249, 2-((4-(7-(((2S,5R)-5-((N,N-Dimethylsulfamoyl)amino)tetrahydro-2H-pyran-2-yl)methyl)-2,7-diazaspiro[3.5]nonan-2-yl)pyrimidin-5-yl)oxy)-5-fluoro-N-isopropyl-N-(oxetan-3-yl)benzamide]
30 μM compound
  hERG % Remaining: +++ (≥66%)

## CCNS(=O)(=O)N[C@@H]1CC[C@@H](CN2CCC3(CC2)CN(c2ncncc2Oc2ccc(F)cc2C(=O)N(C(C)C)C2CC2)C3)OC1 [Example 145, N-Cyclopropyl-2-((4-(7-(((2S,5R)-5-((N-ethylsulfamoyl)amino)tetrahydro-2H-pyran-2-yl)methyl)-2,7-diazaspiro[3.5]nonan-2-yl)pyrimidin-5-yl)oxy)-5-fluoro-N-isopropylbenzamide]
30 μM compound
  hERG % Remaining: +++ (≥66%)

## CCN(CC)S(=O)(=O)N[C@@H]1CC[C@@H](CN2CCC3(CC2)CN(c2ncncc2Oc2ccc(F)cc2C(=O)N(CC(F)F)C(C)C)C3)OC1 [Example 97, 2-((4-(7-(((2S,5R)-5-((N,N-Diethylsulfamoyl)amino)tetrahydro-2H-pyran-2-yl)methyl)-2,7-diazaspiro[3.5]nonan-2-yl)pyrimidin-5-yl)oxy)-N-(2,2-difluoroethyl)-5-fluoro-N-isopropylbenzamide]
10 μM compound
  hERG % Remaining: ++ (233% and ≤66%)
30 μM compound
  hERG % Remaining: + (<33%)

## CC(C)N(C(=O)c1cc(F)ccc1Oc1cncnc1N1CC2(CCN(C[C@@H]3CC[C@@H](NS(=O)(=O)N(C)C)CO3)CC2)C1)C1CC1 [Example 93, N-Cyclopropyl-2-((4-(7-(((2S,5R)-5-((N,N-dimethylsulfamoyl)amino)tetrahydro-2H-pyran-2-yl)methyl)-2,7-diazaspiro[3.5]nonan-2-yl)pyrimidin-5-yl)oxy)-5-fluoro-N-isopropylbenzamide]
1 μM compound
  hERG % Remaining: +++ (≥66%)
3 μM compound
  hERG % Remaining: +++ (≥66%)
10 μM compound
  hERG % Remaining: +++ (≥66%)
30 μM compound
  hERG % Remaining: ++ (233% and ≤66%)
100 μM compound
  hERG % Remaining: + (<33%)
